The source of these data is US20060240505A1, “Identification of Targets of Antimicrobial Compounds” (priority 2000, published 2006).

≈ marks a conversion by molar mass, not a printed value. Where two headings read alike, the source gives them in different places.

For assay [1], the system named is RN4220/pYH4MurA1. In words: MIC of phosphomycin against S. aureus RN4220 carrying the murA1 ORF clone, with and without inducer. The format is cell-based. As for the experimental part:
(§1) The murA1 ORF is cloned into the pYH4 expression vector, the features of which are described above, and the anhydrotetracycline inducer is added to a sample containing the murA1 ORF. In addition, a control sample containing only the vector is induced and the MICs of the induced and uninduced vector are determined. […] This confirms that murA1 is a target of phosphomycin.

The test system of assay [2] is RN4220/pYH4. In words: MIC against S. aureus RN4220 carrying empty expression vector pYH4 (control), with and without inducer. The format is cell-based. On the procedure: (§2) The pYH4 expression vector was used to clone the FabI ORF and it served as a control for the experiment.
as §1
The metRS ORF is cloned into the pYH4 expression vector, the features of which are described above, and the anhydrotetracycline inducer is added to a sample containing the metRS ORF. The MICs for the anitmicrobial compound of induced and uninduced samples are determined. In addition, a control sample containing only the vector is induced and the MICs of the induced and uninduced vector are determined. […] This confirms that metRS is a target of the exemplified antimicrobial compound.

In assay [3] the test system is RN4220/pYH4 and RN4220/pYH4-fabI mixed in the ratio of 100:1. In words: Selection of triclosan resistant colonies on TSA plates from a mixed culture. The format is cell-based, S. aureus. The following applies: approximately 1,000 bacterial cells plated. As for the experimental part: In the experiment, a S. aureus strain with expression vector (RN4220/pYH4) was combined with the expression vector and FabI open reading frame (RN4220/pYH4-fabI) in the ratio of 100:1. Then, approximately 1,000 bacterial cells of this mixture were plated onto TSA plates containing: (1) no triclosan (-triclosan); (2) 0.25 μg/ml of triclosan; and (3) 0.25 μg/ml of triclosan plus 0.4 μg/ml anhydrotetracycline inducer. […] The third plate was indicative of FabI-containing clones which are confirmed to be targets of the triclosan antimicrobial compound.

Assay [4] deals with RN4220/pYH4-fabI. In words: MIC of triclosan against S. aureus RN4220 carrying the fabI ORF clone, with and without inducer. Format: cell-based. The note with it: Staphylococcus aureus, strain RN4220/pYH4-fabI, read-out: MIC concentration of triclosan necessary to inhibit the strain.
Excerpt: This confirms that FabI is a target of triclosan.
as §2

As to `C[C@@H]1O[C@@H]1P(=O)(O)O` [phosphomycin], the “MIC of the induced murA1 gene relative to the uninduced vector alone” value in assay [1] (induced murA1 clone vs uninduced vector) is on record as 64 fold. For the same compound, the MIC of phosphomycin came to 256 µg/mL in assay [1] (strain RN4220/pYH4MurA1, +ATc); 32 µg/mL in assay [1] (strain RN4220/pYH4MurA1, −Atc); 2 µg/mL in assay [2] (strain RN4220/pYH4, +ATc); 4 µg/mL in assay [2] (strain RN4220/pYH4, −Atc). The “MIC of the uninduced murA1 gene relative to the uninduced vector alone” value in assay [1] (uninduced murA1 clone vs uninduced vector) stood at 8 fold.

As to `Oc1cc(Cl)ccc1Oc1ccc(Cl)cc1Cl` [triclosan], the “colonies grown on TSA plate” value is reported as 15 colonies in assay [3] (0.25 μg/ml triclosan plus 0.4 μg/ml anhydrotetracycline inducer) and “no colonies grew” in assay [3] (0.25 μg/ml triclosan, no inducer). Also, the MIC in assay [2] (Staphylococcus aureus, strain RN4220/pYH4, −inducer, read-out: MIC concentration of triclosan necessary to inhibit the strain) is 0.0625 µg/mL (≈ 0.216 µM); in assay [4] (+inducer), 1 µg/mL; in assay [4] (−inducer), 0.0625 µg/mL. Moreover, the “MIC concentration of triclosan necessary to inhibit the strain” value in assay [2] (strain RN4220/pYH4, +inducer) came out at 0.0625 µg/mL.
